Reference: EPA's CvTdb concentration-time database

Legend:
Assay in all cases: concentration in plasma after dosing
[1] = test system: Rat; conditions: dosed: Oxazepam, 200 mg/kg, oral, Female, F344
[2] = test system: Rat; conditions: dosed: Oxazepam, 200 mg/kg, oral, Male, F344
[3] = test system: Rat; conditions: dosed: Oxazepam, 200 mg/kg, oral, Female, F344; remark: listed apart in the source
[4] = test system: Rat; conditions: dosed: Oxazepam, 200 mg/kg, oral, Male, F344; remark: listed apart in the source
[5] = test system: Rat; conditions: dosed: Oxazepam, 200 mg/kg, oral, Female, F344; remark: listed apart in the source
[6] = test system: Rat; conditions: dosed: Oxazepam, 200 mg/kg, oral, Female, F344; remark: listed apart in the source
[7] = test system: Rat; conditions: dosed: Oxazepam, 200 mg/kg, oral, Male, F344; remark: listed apart in the source
[8] = test system: Rat; conditions: dosed: Oxazepam, 400 mg/kg, oral, Female, F344
[9] = test system: Rat; conditions: dosed: Oxazepam, 200 mg/kg, oral, Male, F344; remark: listed apart in the source
[10] = test system: Rat; conditions: 3.5 h; dosed: Oxazepam; 50 mg/kg; oral; Male; F344
[11] = test system: Rat; conditions: dosed: Oxazepam, 50 mg/kg, oral, Female, F344
[12] = test system: Rat; conditions: 3.5 h; dosed: Oxazepam; 50 mg/kg; oral; Male; F344; remark: listed apart in the source
[13] = test system: Rat; conditions: dosed: Oxazepam, 50 mg/kg, oral, Female, F344; remark: listed apart in the source
[14] = test system: Rat; conditions: dosed: Oxazepam, 200 mg/kg, oral, Male, F344; remark: listed apart in the source
[15] = test system: Rat; conditions: dosed: Oxazepam, 50 mg/kg, oral, Female, F344; remark: listed apart in the source
[16] = test system: Rat; conditions: dosed: Oxazepam, 400 mg/kg, oral, Male, F344
[17] = test system: Rat; conditions: dosed: Oxazepam, 50 mg/kg, oral, Male, F344
[18] = test system: Rat; conditions: dosed: Oxazepam, 200 mg/kg, oral, Male, F344; remark: listed apart in the source
[19] = test system: Rat; conditions: 1 h; dosed: Oxazepam; 50 mg/kg; oral; Female; F344
[20] = test system: Rat; conditions: 2 h; dosed: Oxazepam; 50 mg/kg; oral; Male; F344
[21] = test system: Rat; conditions: dosed: Oxazepam, oral, F344
[22] = test system: Rat; conditions: dosed: Oxazepam, 50 mg/kg, oral, Male, F344; remark: listed apart in the source
[23] = test system: Rat; conditions: dosed: Oxazepam, 200 mg/kg, oral, Female, F344; remark: listed apart in the source
[24] = test system: Rat; conditions: dosed: Oxazepam, 400 mg/kg, oral, Male, F344; remark: listed apart in the source
[25] = test system: Rat; conditions: dosed: Oxazepam, 200 mg/kg, oral, Female, F344; remark: listed apart in the source
[26] = test system: Rat; conditions: 3.5 h; dosed: Oxazepam; 50 mg/kg; oral; Female; F344
[27] = test system: Rat; conditions: dosed: Oxazepam, 50 mg/kg, oral, Female, F344; remark: listed apart in the source
[28] = test system: Rat; conditions: dosed: Oxazepam, 50 mg/kg, oral, Male, F344; remark: listed apart in the source
[29] = test system: Rat; conditions: dosed: Oxazepam, 50 mg/kg, oral, Male, F344; remark: listed apart in the source
[30] = test system: Rat; conditions: dosed: Oxazepam, 200 mg/kg, oral, Female, F344; remark: listed apart in the source
[31] = test system: Rat; conditions: dosed: Oxazepam, 400 mg/kg, oral, Female, F344; remark: listed apart in the source
[32] = test system: Rat; conditions: dosed: Oxazepam, 200 mg/kg, oral, Male, F344; remark: listed apart in the source
[33] = test system: Rat; conditions: dosed: Oxazepam, 50 mg/kg, oral, Male, F344; remark: listed apart in the source
[34] = test system: Rat; conditions: dosed: Oxazepam, 200 mg/kg, oral, Female, F344; remark: listed apart in the source
[35] = test system: Rat; conditions: dosed: Oxazepam, 50 mg/kg, oral, Female, F344; remark: listed apart in the source
[36] = test system: Rat; conditions: dosed: Oxazepam, 200 mg/kg, oral, Male, F344; remark: listed apart in the source
[37] = test system: Rat; conditions: dosed: Oxazepam, 50 mg/kg, oral, Female, F344; remark: listed apart in the source

O=C1Nc2ccc(Cl)cc2C(c2ccccc2)=NC1O (stereo not given) [Oxazepam]
Conditions | concentration in plasma [ng/mL]
[1], 3.5 h | 2990
[1], 24 h | 10000
[2], 6 h | 1960
[2], 20 min | 1020
[3], 6 h | 1000
[3], 20 min | 1200
[4], 2 h | 2130
[4], 18 h | 3140
[5], 2 h | 3340
[5], 18 h | 3360
[6], 2 h | 2840
[6], 18 h | 760
[7], 3.5 h | 10500
[7], 24 h | 1320
[8], 1 h | 3270
[8], 10 h | 4280
[9], 2 h | 2210
[9], 18 h | 1850
[11], 6 h | 1560
[11], 20 min | 880
[13], 6 h | 1630
[13], 20 min | 760
[14], 1 h | 2310
[14], 10 h | 1250
[15], 2 h | 3640
[15], 18 h | 270
[16], 1 h | 2440
[16], 10 h | 3960
[17], 2 h | 990
[17], 18 h | 370
[18], 6 h | 2020
[18], 20 min | 1470
[22], 1 h | 1280
[22], 10 h | 520
[23], 1 h | 2880
[23], 10 h | 3470
[24], 1 h | 3500
[24], 10 h | 1790
[25], 6 h | 4550
[25], 20 min | 1250
[27], 3.5 h | 710
[27], 24 h | 450
[28], 1 h | 950
[28], 10 h | 390
[29], 6 h | 510
[29], 20 min | 290
[30], 1 h | 2300
[30], 10 h | 1720
[31], 1 h | 4120
[31], 10 h | 5630
[32], 3.5 h | 2630
[32], 24 h | 520
[33], 6 h | 580
[33], 20 min | 400
[34], 3.5 h | 4280
[34], 24 h | 1460
[35], 1 h | 1610
[35], 10 h | 820
[36], 1 h | 1630
[36], 10 h | 2030
[37], 2 h | 1620
[37], 18 h | 270

Conditions | concentration in plasma [ng/mL]
[10] | 1070
[12] | 1260
[19] | 1290
[20] | 990
[26] | 2510

concentration in plasma [ng/mL], [21]
Conditions | 1 h | 2 h | 3.5 h | 6 h | 10 h | 18 h | 20 min | 24 h
50 mg/kg, Female | 2850 | 1900 | 1170 | 1230 | 1380 | 280 | 560 | –
50 mg/kg, Male | 1230 | 1000 | 910 | 680 | 330 | – | 450 | 590
200 mg/kg, Female | 3020 | 3870 | 2700 | 3910 | 5160 | 5030 | 1250 | 5000
200 mg/kg, Male | 2370 | – | 3150 | 1580 | 1890 | 730 | 600 | 2280
400 mg/kg, Female | 4100 | – | – | – | 4480 | – | – | –
400 mg/kg, Male | 3070 | – | – | – | 2910 | – | – | –
